From ChEMBL document CHEMBL3352436, “DDD-028: a potent potential non-opioid, non-cannabinoid analgesic for neuropathic and inflammatory pain” (Bioorg Med Chem Lett, 2014)
pKi: −log10 of the molar value. Calls of active or inactive are those of the source.

Columns and labels:
[1] = biological target: Somatostatin receptor type 4 (Homo sapiens, UniProt P31391); assay: Binding affinity to SST4 receptor (unknown origin)
Rattus norvegicus [2] = assay: Antinociceptive activity in Complete Freund's adjuvant-induced inflammatory pain CD rat model assessed as mechanical hypersensitivity measured as weight bearing capacity at 5 mg/kg, po administered 24 hrs post challenge relative to control; type: functional
Mus musculus [3] = assay: Antinociceptive activity in sciatic nerve chronic constriction injury CD1 mouse model assessed as paw withdrawal threshold at 1.3 umol/kg administered intrathecally measured at 300 mins (reference value: 0.21 to 0.30 g); type: functional
[4] = Tmax in CD1 mouse at 5 mg/kg, po; type: ADME, organism-based; parameters: dose 5 mg/kg, route oral; settings: in vivo
Mus musculus [5] = assay: Antinociceptive activity in sciatic nerve chronic constriction injury CD1 mouse model assessed as paw withdrawal threshold at 1.3 umol/kg administered intrathecally measured at 30 mins (reference value: 0.21 to 0.30 g); type: functional
[6] = Cmax in CD1 mouse at 5 mg/kg, po; type: ADME, organism-based; parameters: dose 5 mg/kg, route oral; settings: in vivo
[7] = Elimination rate constant in CD1 mouse at 5 mg/kg, po; type: ADME, organism-based; parameters: dose 5 mg/kg, route oral; settings: in vivo
[8] = Binding affinity to […] AMPA receptor (unknown origin); parameters: species or system Homo sapiens
Adenosine receptor A2a = Adenosine receptor A2a (Homo sapiens, UniProt P29274); assay: Binding affinity to adenosine A2A receptor (unknown origin)
Mus musculus [9] = assay: Antinociceptive activity in sciatic nerve chronic constriction injury CD1 mouse model assessed as paw withdrawal threshold at 3.5 umol/kg, po measured at 180 mins (reference value: 0.26 to 0.37 g); type: functional
Mus musculus [10] = assay: Antinociceptive activity in sciatic nerve chronic constriction injury CD1 mouse model assessed as paw withdrawal threshold at 3.5 umol/kg, po measured at 120 mins (reference value: 0.26 to 0.37 g); type: functional
Adenosine receptor A1 = biological target: T1, Adenosine receptor A1 (Homo sapiens, UniProt P30542); assay: Binding affinity to adenosine A1 receptor (unknown origin)
T1 sequence (P30542 whole entry): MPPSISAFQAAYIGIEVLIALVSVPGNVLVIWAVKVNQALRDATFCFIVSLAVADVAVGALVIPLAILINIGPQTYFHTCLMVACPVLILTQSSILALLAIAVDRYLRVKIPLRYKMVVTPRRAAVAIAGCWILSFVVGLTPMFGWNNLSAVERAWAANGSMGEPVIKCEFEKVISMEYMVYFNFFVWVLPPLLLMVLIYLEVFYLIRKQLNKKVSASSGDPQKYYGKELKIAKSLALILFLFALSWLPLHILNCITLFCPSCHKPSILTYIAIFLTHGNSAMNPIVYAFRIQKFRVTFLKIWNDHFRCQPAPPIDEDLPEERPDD

Cannabinoid receptor 2 = Cannabinoid receptor 2 (Homo sapiens, UniProt P34972); assay: Binding affinity to cannabinoid CB2 receptor (unknown origin)
Rattus norvegicus [11] = assay: Antinociceptive activity in Complete Freund's adjuvant-induced inflammatory pain CD rat model assessed as mechanical hypersensitivity measured as weight bearing capacity at 5 mg/kg, po measured after 15 to 120 mins relative to control; type: functional
Rattus norvegicus [12] = assay: Antinociceptive activity in spinal nerve ligation CD rat model of neuropathic pain assessed as inhibition of mechanical allodynia measured as paw withdrawal threshold at 5 mg/kg, po after 15 to 180 mins relative to pregabalin; type: functional
[13] = Binding affinity to strychnine-sensitive glycine receptor (unknown origin); parameters: species or system Homo sapiens
Rattus norvegicus [14] = assay: Toxicity in Complete Freund's adjuvant-induced inflammatory pain CD rat model assessed as sedation at 5 mg/kg, po measured at 2 hrs post dose; type: organism-based; parameters: dose 5 mg/kg, route oral; settings: in vivo
Mus musculus [15] = assay: Antinociceptive activity in sciatic nerve chronic constriction injury CD1 mouse model assessed as paw withdrawal threshold at 3.5 umol/kg, po measured at 60 mins (reference value: 0.26 to 0.37 g); type: functional
[16] = AUC (0 to t) in CD1 mouse at 5 mg/kg, po; type: ADME, organism-based; parameters: dose 5 mg/kg, route oral; settings: plasma
Mus musculus [17] = assay: Antinociceptive activity in sciatic nerve chronic constriction injury CD1 mouse model assessed as paw withdrawal threshold at 1.3 umol/kg administered intrathecally measured at 120 mins (reference value: 0.21 to 0.30 g); type: functional
[18] = biological target: Somatostatin receptor type 2 (Homo sapiens, UniProt P30874); assay: Binding affinity to SST2 receptor (unknown origin)
Rattus norvegicus [19] = assay: Antinociceptive activity in spinal nerve ligation CD rat model of neuropathic pain assessed as inhibition of mechanical allodynia measured as time required for maximal effect at 5 mg/kg, po; type: functional
[20] = Binding affinity to sigma2 receptor (unknown origin); parameters: species or system Homo sapiens
Mus musculus [21] = assay: Antinociceptive activity in sciatic nerve chronic constriction injury CD1 mouse model assessed as paw withdrawal threshold at 3.5 umol/kg, po measured at 30 mins (reference value: 0.26 to 0.37 g); type: functional
[22] = biological target: Transient receptor potential cation channel subfamily V member 1 (Homo sapiens, UniProt Q8NER1); assay: Binding affinity to TRPV1 (unknown origin)
Mus musculus [23] = assay: Antinociceptive activity in sciatic nerve chronic constriction injury CD1 mouse model assessed as paw withdrawal threshold at 1.3 umol/kg administered intrathecally measured at 60 mins (reference value: 0.21 to 0.30 g); type: functional
Rattus norvegicus [24] = assay: Antinociceptive activity in Complete Freund's adjuvant-induced inflammatory pain CD rat model assessed as mechanical hypersensitivity measured as weight bearing capacity at 5 mg/kg, po measured after 15 to 120 mins relative to indomethacin; type: functional
[25] = Half life in CD1 mouse at 5 mg/kg, po; type: ADME, organism-based; parameters: dose 5 mg/kg, route oral; settings: in vivo
Rattus norvegicus [26] = assay: Antinociceptive activity in Complete Freund's adjuvant-induced inflammatory pain CD rat model assessed as time required for maximal effect at 5 mg/kg, po relative to control; type: functional
Rattus norvegicus [27] = assay: Antinociceptive activity in Complete Freund's adjuvant-induced inflammatory pain CD rat model assessed as mechanical hypersensitivity measured as weight bearing capacity at 5 mg/kg, po administered before challenge relative to control; type: functional
Mus musculus [28] = assay: Antinociceptive activity in sciatic nerve chronic constriction injury CD1 mouse model assessed as paw withdrawal threshold at 3.5 umol/kg, po measured at 300 mins (reference value: 0.26 to 0.37 g); type: functional
[29] = Binding affinity to strychnine-insensitive glycine receptor (unknown origin); parameters: species or system Homo sapiens
Cannabinoid receptor 1 = Cannabinoid receptor 1 (Homo sapiens, UniProt P21554); assay: Binding affinity to cannabinoid CB1 receptor (unknown origin)
Adenosine receptor A3 = biological target: T2, Adenosine receptor A3 (Homo sapiens, UniProt P0DMS8); assay: Binding affinity to adenosine A3 receptor (unknown origin)
T2 sequence (P0DMS8 whole entry): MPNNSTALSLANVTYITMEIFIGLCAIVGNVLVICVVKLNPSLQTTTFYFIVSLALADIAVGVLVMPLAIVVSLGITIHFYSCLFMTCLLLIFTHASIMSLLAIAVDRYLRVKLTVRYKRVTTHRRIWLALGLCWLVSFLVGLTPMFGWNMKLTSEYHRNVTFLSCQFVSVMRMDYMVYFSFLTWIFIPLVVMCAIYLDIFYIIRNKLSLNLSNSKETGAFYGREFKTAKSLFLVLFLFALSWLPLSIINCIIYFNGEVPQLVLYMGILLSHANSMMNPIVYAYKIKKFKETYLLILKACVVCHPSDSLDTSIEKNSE

Rattus norvegicus [30] = assay: Antinociceptive activity in spinal nerve ligation CD rat model of neuropathic pain assessed as inhibition of mechanical allodynia at 39 mg/kg, po after 15 to 180 mins; type: functional
Mus musculus [31] = assay: Antinociceptive activity in sciatic nerve chronic constriction injury CD1 mouse model assessed as paw withdrawal threshold at 1.3 umol/kg administered intrathecally measured at 180 mins (reference value: 0.21 to 0.30 g); type: functional
[32] = AUC (0 to infinity) in CD1 mouse at 5 mg/kg, po; type: ADME, organism-based; parameters: time infinity, dose 5 mg/kg, route oral; settings: plasma
Rattus norvegicus [33] = assay: Antinociceptive activity in Complete Freund's adjuvant-induced inflammatory pain CD rat model assessed as mechanical hypersensitivity measured as weight bearing capacity at 5 mg/kg, po measured up to 15 mins relative to control; type: functional, organism-based; parameters: dose 5 mg/kg
[34] = AUC (0 to t) in CD rat at 27 mg/kg, iv; type: ADME, organism-based; parameters: dose 27 mg/kg, route intravenous; settings: plasma
[35] = Half life in CD rat at 27 mg/kg, iv; type: ADME, organism-based; parameters: dose 27 mg/kg, route intravenous; settings: in vivo
Rattus norvegicus [36] = assay: Antinociceptive activity in Complete Freund's adjuvant-induced inflammatory pain CD rat model assessed as mechanical hypersensitivity measured as weight bearing capacity at 30 mg/kg, po measured up to 15 mins relative to control; type: functional, organism-based; parameters: dose 30 mg/kg
Rattus norvegicus [37] = assay: Antinociceptive activity in Complete Freund's adjuvant-induced inflammatory pain CD rat model assessed as mechanical hypersensitivity measured as weight bearing capacity at 30 mg/kg, po measured after 15 to 120 mins relative to control; type: functional, organism-based; parameters: dose 30 mg/kg
Rattus norvegicus [38] = assay: Toxicity in Complete Freund's adjuvant-induced inflammatory pain CD rat model assessed as sedation at 30 mg/kg, po measured at 2 hrs post dose; type: organism-based; parameters: dose 30 mg/kg, route oral; settings: in vivo
[39] = Tmax in CD rat at 27 mg/kg, iv; type: ADME, organism-based; parameters: dose 27 mg/kg, route intravenous; settings: in vivo
[40] = Cmax in CD rat at 27 mg/kg, iv; type: ADME, organism-based; parameters: dose 27 mg/kg, route intravenous; settings: in vivo
[41] = Elimination rate constant in CD rat at 27 mg/kg, iv; type: ADME, organism-based; parameters: dose 27 mg/kg, route intravenous; settings: in vivo
Rattus norvegicus [42] = assay: Antinociceptive activity in Complete Freund's adjuvant-induced inflammatory pain CD rat model assessed as time required for maximal effect at 30 mg/kg, po relative to control; type: functional
[43] = AUC (0 to infinity) in CD rat at 27 mg/kg, iv; type: ADME, organism-based; parameters: time infinity, dose 27 mg/kg, route intravenous; settings: plasma
Rattus norvegicus [44] = assay: Antinociceptive activity in spinal nerve ligation CD rat model of neuropathic pain assessed as inhibition of mechanical allodynia measured as time required for maximal effect at 39 mg/kg, po; type: functional
Rattus norvegicus [45] = assay: Antinociceptive activity in spinal nerve ligation CD rat model of neuropathic pain assessed as inhibition of mechanical allodynia measured as paw withdrawal threshold at 39 mg/kg, po up to 15 mins; type: functional, organism-based; parameters: dose 39 mg/kg

Somatostatin receptor type 2, sequence (P30874 whole entry): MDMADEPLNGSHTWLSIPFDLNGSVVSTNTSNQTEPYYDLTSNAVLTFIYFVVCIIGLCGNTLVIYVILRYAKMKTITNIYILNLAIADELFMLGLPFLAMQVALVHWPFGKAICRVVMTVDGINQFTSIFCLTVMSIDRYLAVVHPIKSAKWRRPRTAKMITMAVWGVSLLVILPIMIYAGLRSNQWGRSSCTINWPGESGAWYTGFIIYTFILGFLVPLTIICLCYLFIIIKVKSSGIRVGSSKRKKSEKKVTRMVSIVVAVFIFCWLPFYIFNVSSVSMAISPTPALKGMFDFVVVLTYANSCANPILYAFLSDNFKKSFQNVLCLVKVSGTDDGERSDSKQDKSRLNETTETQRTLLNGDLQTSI
Somatostatin receptor type 4, sequence (P31391 whole entry): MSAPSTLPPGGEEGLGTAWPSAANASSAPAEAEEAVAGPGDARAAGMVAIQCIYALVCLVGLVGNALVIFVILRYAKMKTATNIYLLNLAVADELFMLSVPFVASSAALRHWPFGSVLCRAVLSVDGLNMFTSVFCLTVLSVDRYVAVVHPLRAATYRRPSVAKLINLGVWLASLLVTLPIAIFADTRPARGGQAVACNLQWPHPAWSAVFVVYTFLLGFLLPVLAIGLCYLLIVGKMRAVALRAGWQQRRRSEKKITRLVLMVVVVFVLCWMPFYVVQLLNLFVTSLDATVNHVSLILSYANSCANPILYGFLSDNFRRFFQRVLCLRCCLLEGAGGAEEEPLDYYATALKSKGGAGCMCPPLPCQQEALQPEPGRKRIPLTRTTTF
Cannabinoid receptor 1, sequence (P21554 whole entry): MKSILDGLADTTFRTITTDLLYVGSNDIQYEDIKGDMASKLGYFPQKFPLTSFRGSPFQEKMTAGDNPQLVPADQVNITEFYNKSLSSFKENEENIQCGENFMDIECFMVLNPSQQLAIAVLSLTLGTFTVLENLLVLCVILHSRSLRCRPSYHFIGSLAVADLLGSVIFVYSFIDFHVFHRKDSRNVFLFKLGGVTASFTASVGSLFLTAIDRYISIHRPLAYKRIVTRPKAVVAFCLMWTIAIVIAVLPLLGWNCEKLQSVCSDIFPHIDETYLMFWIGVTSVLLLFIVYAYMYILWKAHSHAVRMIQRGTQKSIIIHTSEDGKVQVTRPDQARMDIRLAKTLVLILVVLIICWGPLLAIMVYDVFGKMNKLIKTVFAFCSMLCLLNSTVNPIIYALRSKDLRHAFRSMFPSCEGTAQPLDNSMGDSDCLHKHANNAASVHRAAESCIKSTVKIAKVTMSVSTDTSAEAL
Cannabinoid receptor 2, sequence (P34972 whole entry): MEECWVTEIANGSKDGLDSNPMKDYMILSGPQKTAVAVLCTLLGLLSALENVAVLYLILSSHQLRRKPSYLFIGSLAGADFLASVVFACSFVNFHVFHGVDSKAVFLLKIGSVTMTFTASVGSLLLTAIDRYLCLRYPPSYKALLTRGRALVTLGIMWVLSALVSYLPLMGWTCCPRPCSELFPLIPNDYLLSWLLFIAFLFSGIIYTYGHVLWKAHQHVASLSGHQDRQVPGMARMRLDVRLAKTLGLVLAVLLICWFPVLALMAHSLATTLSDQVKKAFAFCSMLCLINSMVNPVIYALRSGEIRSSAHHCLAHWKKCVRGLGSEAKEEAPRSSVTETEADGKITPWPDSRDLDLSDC
Transient receptor potential cation channel subfamily V member 1, sequence (Q8NER1 whole entry): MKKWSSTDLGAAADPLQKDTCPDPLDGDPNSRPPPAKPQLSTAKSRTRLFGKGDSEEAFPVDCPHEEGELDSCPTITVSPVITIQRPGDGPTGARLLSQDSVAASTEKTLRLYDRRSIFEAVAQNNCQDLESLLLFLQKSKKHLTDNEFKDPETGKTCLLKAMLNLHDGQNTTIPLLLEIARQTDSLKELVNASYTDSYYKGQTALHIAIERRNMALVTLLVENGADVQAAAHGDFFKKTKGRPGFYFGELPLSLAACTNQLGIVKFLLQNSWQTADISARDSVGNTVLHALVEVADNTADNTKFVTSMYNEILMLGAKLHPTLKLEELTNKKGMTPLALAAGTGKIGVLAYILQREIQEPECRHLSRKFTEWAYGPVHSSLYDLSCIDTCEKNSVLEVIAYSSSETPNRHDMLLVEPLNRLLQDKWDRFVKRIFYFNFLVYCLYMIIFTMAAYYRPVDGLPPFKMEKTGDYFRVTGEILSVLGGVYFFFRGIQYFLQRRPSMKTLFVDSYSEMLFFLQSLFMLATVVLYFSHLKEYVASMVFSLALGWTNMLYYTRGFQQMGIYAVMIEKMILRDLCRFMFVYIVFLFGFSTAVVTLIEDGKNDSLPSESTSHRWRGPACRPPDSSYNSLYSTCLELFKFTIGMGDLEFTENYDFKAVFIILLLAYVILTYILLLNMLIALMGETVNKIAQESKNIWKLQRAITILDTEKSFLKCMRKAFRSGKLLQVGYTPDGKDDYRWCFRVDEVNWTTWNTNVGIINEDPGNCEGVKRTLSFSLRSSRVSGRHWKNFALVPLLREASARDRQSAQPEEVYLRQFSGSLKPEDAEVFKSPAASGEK
Adenosine receptor A2a, sequence (P29274 whole entry): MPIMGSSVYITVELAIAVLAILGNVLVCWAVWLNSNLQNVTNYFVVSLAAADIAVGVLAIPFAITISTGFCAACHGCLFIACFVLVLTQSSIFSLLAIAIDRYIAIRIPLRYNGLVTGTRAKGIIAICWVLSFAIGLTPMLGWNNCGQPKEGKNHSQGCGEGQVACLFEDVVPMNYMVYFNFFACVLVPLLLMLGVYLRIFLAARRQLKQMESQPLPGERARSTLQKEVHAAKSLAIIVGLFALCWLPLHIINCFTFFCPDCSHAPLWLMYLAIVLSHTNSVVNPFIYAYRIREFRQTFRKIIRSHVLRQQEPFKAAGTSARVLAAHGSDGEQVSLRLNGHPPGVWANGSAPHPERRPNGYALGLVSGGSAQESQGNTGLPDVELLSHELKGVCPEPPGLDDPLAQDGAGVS

## CN1CCc2c(c3cccc4c3n2CCc2ccccc2-4)C1
[1]
  pKi: < 5.00
Rattus norvegicus [2]
  Activity: 35.2%
Mus musculus [3]
  Activity: 0.21 g
[4]
  Tmax: 0.25 h
Mus musculus [5]
  Activity: 0.86 g
[6]
  Cmax: 126 ng/mL
[7]
  k el: 0.000103 s⁻¹
[8]
  pKi: < 5.00
Adenosine receptor A2a
  pKi: < 5.00
Mus musculus [9]
  Activity: 0.4 g
Mus musculus [10]
  Activity: 0.57 g
Adenosine receptor A1
  pKi: < 5.00
Cannabinoid receptor 2
  pKi: < 5.00
Rattus norvegicus [11]
  Activity: 90%
Rattus norvegicus [12]
  fold change (FC): 7
[13]
  pKi: < 5.00
Rattus norvegicus [14]
  Activity: Non-toxic
Mus musculus [15]
  Activity: 1.09 g
[16]
  AUC(0-t): 211 ng·h/mL
Mus musculus [17]
  Activity: 0.67 g
[18]
  pKi: < 5.00
Rattus norvegicus [19]
  Time: 30 min
[20]
  pKi: 6.51
Mus musculus [21]
  Activity: 0.75 g
[22]
  Ki: Not Active
Mus musculus [23]
  Activity: 0.88 g
Rattus norvegicus [24]
  fold change (FC): 5
[25]
  half-life: 1.86 h
Rattus norvegicus [26]
  Time: 60 min
Rattus norvegicus [27]
  Activity: 50.8%
Mus musculus [28]
  Activity: 0.21 g
[29]
  pKi: < 5.00
Cannabinoid receptor 1
  pKi: < 5.00
Adenosine receptor A3
  pKi: < 5.00
Rattus norvegicus [30]
  inhibition in vivo at 39 mg/kg: 50%
Mus musculus [31]
  Activity: 0.41 g
[32]
  AUC(0-inf): 216 ng·h/mL
Rattus norvegicus [33]
  Activity: Active

## COc1ccc2c(c1)c(CC(=O)O)c(C)n2C(=O)c1ccc(Cl)cc1 [INDOMETHACIN]
[34]
  AUC(0-t): 93800 ng·h/mL
[35]
  half-life: 5.99 h
Rattus norvegicus [36]
  Activity: Active
Rattus norvegicus [37]
  Activity: Active
Rattus norvegicus [38]
  Activity: Toxic
[39]
  Tmax: 0.75 h
[40]
  Cmax: 10400 ng/mL
[41]
  k el: 3.33e-05 s⁻¹
Rattus norvegicus [42]
  Time: 60 min
[43]
  AUC(0-inf): 97100 ng·h/mL

## CC(C)C[C@H](CN)CC(=O)O [PREGABALIN]
Rattus norvegicus [44]
  Time: 120 min
Rattus norvegicus [45]
  inhibition: Active
